These molecules were tested against CDK2/Cyclin E1 (Homo sapiens (Human), UniProt P24941) (assay: CDK2/Cyclin E1 HTRF enzyme activity assay (Example A)). Details: 1 mM ATP.
Format: biochemical
Procedure: Assays were conducted in white 384-well polystyrene plates in a final reaction volume of 8 μL. […] HTRF signals were read after 1 hour at room temperature on a PHERAstar FS plate reader (BMG Labtech). Data was analyzed with IDBS XLFit and GraphPad Prism 5.0 software using a three or four parameter dose response curve to determine IC50 for each compound.

SMILES | IC50
CC(C)NCc1ccc(-n2cnc(-c3nc(NC4CCN(S(C)(=O)=O)CC4)ncc3C(F)(F)F)c2)c(C#N)c1 [Example 340, 5-((Isopropylamino)methyl)-2-(4-(2-((1-(methylsulfonyl)piperidin-4-yl)amino)-5-(trifluoromethyl)pyrimidin-4-yl)-1H-imidazol-1-yl)benzonitrile] | ≤ 50 nM
CS(=O)(=O)N1CCC(Nc2ncc(C(F)(F)F)c(-c3cn(-c4ccc(Cn5ccnc5)cc4Cl)cn3)n2)CC1 [Example 238, 4-(1-(4-((H-Imidazol-1-yl)methyl)-2-chlorophenyl)-1H-imidazol-4-yl)-N-(1-(methylsulfonyl)piperidin-4-yl)-5-(trifluoromethyl)pyrimidin-2-amine] | ≤ 50 nM
Cc1nc(-c2nc(NC3CCN(S(C)(=O)=O)CC3)ncc2C(F)(F)F)cn1-c1ccc(N2CCN[C@H](C)C2)cc1F [Example 115, (R)-4-(1-(2-Fluoro-4-(3-methyl-piperazin-1-yl)-phenyl)-2-methyl-1H-imidazol-4-yl)-N-(1-(methyl-sulfonyl)piperidin-4-yl)-5-(trifluoro-methyl)pyrimidin-2-amine] | ≤ 50 nM
CS(=O)(=O)N1CCC(Nc2ncc(C(F)(F)F)c(-c3cn(-c4cccc(C#N)c4C(F)(F)F)cn3)n2)CC1 [Example 38, 3-(4-(2-((1-(Methylsulfonyl)piperidin-4-yl)amino)-5-(trifluoromethyl)pyrimidin-4-yl)-1H-imidazol-1-yl)-2-(trifluoromethyl)benzonitrile] | ≤ 50 nM
Cn1cc(S(=O)(=O)N2CCC(Nc3ncc(C(F)(F)F)c(-c4cn(CC(F)F)cn4)n3)CC2)cn1 [Example 334, 4-(1-(2,2-Difluoroethyl)-1H-imidazol-4-yl)-N-(1-((1-methyl-1H-pyrazol-4-yl)sulfonyl)piperidin-4-yl)-5-(trifluoromethyl)pyrimidin-2-amine] | ≤ 50 nM
CS(=O)(=O)N1CCC(Nc2ncc(C(F)(F)F)c(-c3cn(-c4cccc(-c5cccnc5)c4Cl)cn3)n2)CC1 [Example 97, 4-(1-(2-chloro-3-(Pyridin-3-yl)phenyl)-1H-imidazol-4-yl)-N-(1-(methylsulfonyl)piperidin-4-yl)-5-(trifluoromethyl) pyrimidin-2-amine] | ≤ 50 nM
CS(=O)(=O)N1CCC(Nc2ncc(C(F)(F)F)c(-c3cn(-c4ccc(CN5CCC5=O)cc4Cl)cn3)n2)CC1 [Example 452, 1-(3-Chloro-4-(4-(2-((1-(methylsulfonyl)piperidin-4-yl)amino)-5-(trifluoromethyl)pyrimidin-4-yl)-1H-imidazol-1-yl)benzyl)azetidin-2-one] | ≤ 50 nM
CS(=O)(=O)N1CCC(Nc2ncc(C(F)(F)F)c(-c3cn(-c4cccc(C#N)c4Cl)cn3)n2)CC1 [Example 58, 2-Chloro-3-(4-(2-((1-(methylsulfonyl)piperidin-4-yl)amino)-5-(trifluoromethyl)pyrimidin-4-yl)-1H-imidazol-1-yl)benzonitrile] | ≤ 50 nM
Cc1ccc(-n2cnc(-c3nc(NC4CCN(S(C)(=O)=O)CC4)ncc3C(F)(F)F)c2)c(C#N)c1Cl [Example 62, 2-Chloro-3-methyl-6-(4-(2-((1-(methylsulfonyl)piperidin-4-yl)amino)-5-(trifluoromethyl)pyrimidin-4-yl)-1H-imidazol-1-yl)benzonitrile] | ≤ 50 nM
CS(=O)(=O)N1CCC(Nc2ncc(C(F)(F)F)c(-c3cn(-c4cccc(CN5CC[C@H](C#N)C5)c4C(F)(F)F)cn3)n2)CC1 [Example 471, (S)-1-(3-(4-(2-((1-(Methylsulfonyl)piperidin-4-yl)amino)-5-(trifluoromethyl)pyrimidin-4-yl)-1H-imidazol-1-yl)-2-(trifluoromethyl)benzyl)pyrrolidine-3-carbonitrile] | ≤ 50 nM
CS(=O)(=O)N1CCC(Nc2ncc(C(F)(F)F)c(-c3cn(-c4ccc(CCN5CCC5)cc4Cl)cn3)n2)CC1 [Example 158, 4-(1-(4-(2-(Azetidin-1-yl)ethyl)-2-chloro-phenyl)-1H-imidazol-4-yl)-N-(1-(methyl-sulfonyl)piperidin-4-yl)-5-(trifluoro-methyl)pyrimidin-2-amine] | ≤ 50 nM
CS(=O)(=O)N1CCC(Nc2ncc(C(F)(F)F)c(-c3cn(-c4ccc(CN5C6CCC5COC6)cc4Cl)cn3)n2)CC1 [Example 215, 4-(1-(4-((3-Oxa-8-azabicyclo[3.2.1]-octan-8-yl)methyl)-2-chlorophenyl)-1H-imidazol-4-yl)-N-(1-(methylsulfonyl)-piperidin-4-yl)-5-(trifluoromethyl)-pyrimidin-2-amine] | ≤ 50 nM
COc1nccc(-n2cnc(-c3nc(N[C@H]4CCN(S(C)(=O)=O)C[C@H]4F)ncc3C(F)(F)F)c2)c1Cl [Example 300, 4-(1-(3-Chloro-2-methoxypyridin-4-yl)-1H-imidazol-4-yl)-N-((3R,4S)-3-fluoro-1-(methylsulfonyl)piperidin-4-yl)-5-(trifluoromethyl)pyrimidin-2-amine] | ≤ 50 nM
CCS(=O)(=O)N1CCC(Nc2ncc(C(F)(F)F)c(-c3cn(CC(F)F)cn3)n2)CC1 [Example 328, 4-(1-(2,2-Difluoroethyl)-1H-imidazol-4-yl)-N-(1-(ethylsulfonyl)piperidin-4-yl)-5-(trifluoromethyl)pyrimidin-2-amine] | ≤ 50 nM
Cn1cc(-c2nc(NC3CCN(S(C)(=O)=O)CC3)ncc2C(F)(F)F)nc1CO [Example 17, (1-Methyl-4-(2-((1-(methylsulfonyl)piperidin-4-yl)amino)-5-(trifluoromethyl)pyrimidin-4-yl)-1H-imidazol-2-yl)methanol] | ≤ 50 nM

Continued, values first:

IC50 | SMILES
≤ 50 nM | Cc1nc(-c2nc(NC3CCN(S(C)(=O)=O)CC3)ncc2C#N)cn1-c1ccc(C#N)cc1F [Example 290, 4-(1-(4-Cyano-2-fluorophenyl)-2-methyl-1H-imidazol-4-yl)-2-((1-(methylsulfonyl)piperidin-4-yl)amino)pyrimidine-5-carbonitrile]
≤ 50 nM | CS(=O)(=O)N1CCC(Nc2ncc(C(F)(F)F)c(-c3cn(-c4c(F)cccc4Cl)cn3)n2)CC1 [Example 54, 4-(1-(2-Chloro-6-fluorophenyl)-1H-imidazol-4-yl)-N-(1-(methylsulfonyl)piperidin-4-yl)-5-(trifluoromethyl)pyrimidin-2-amine]
≤ 50 nM | Cn1nccc1-c1ccc(-n2cnc(-c3nc(NC4CCN(S(C)(=O)=O)CC4)ncc3C(F)(F)F)c2)c(Cl)c1 [Example 119, 4-(1-(2-Chloro-4-(1-methyl-1H-pyrazol-5-yl)phenyl)-1H-imidazol-4-yl)-N-(1-(methylsulfonyl)piperidin-4-yl)-5-(trifluoromethyl)pyrimidin-2-amine]
≤ 50 nM | CC1CN(Cc2ccc(-n3cnc(-c4nc(N[C@H]5CCN(S(C)(=O)=O)C[C@H]5F)ncc4C(F)(F)F)c3)c(Cl)c2)C1 [Example 224, 4-(1-(2-Chloro-4-((3-methylazetidin-1-yl)methyl)phenyl)-1H-imidazol-4-yl)-N-((3R,4S)-3-fluoro-1-(methylsulfonyl)-piperidin-4-yl)-5-(trifluoromethyl)-pyrimidin-2-amine]
≤ 50 nM | Cn1cnc(-c2nc(NC3CCN(S(C)(=O)=O)CC3)ncc2C(F)(F)F)c1Br [Example 13, 4-(5-Bromo-1-methyl-1H-imidazol-4-yl)-N-(1-(methylsulfonyl)piperidin-4-yl)-5-(trifluoromethyl)pyrimidin-2-amine]
≤ 50 nM | Cc1c(-n2cnc(-c3nc(NC4CCN(S(C)(=O)=O)CC4)ncc3C(F)(F)F)c2)ccnc1C#N [Example 292, 3-Methyl-4-(4-(2-((1-(methylsulfonyl)piperidin-4-yl)amino)-5-(trifluoromethyl)pyrimidin-4-yl)-1H-imidazol-1-yl)picolinonitrile]
≤ 50 nM | Cc1nc(-c2nc(NC3CCN(S(C)(=O)=O)CC3)ncc2C(F)(F)F)cn1-c1ccc(OCCN(C)C)cc1F [Example 423, 4-(1-(4-(2-(Dimethylamino)ethoxy)-2-fluorophenyl)-2-methyl-1H-imidazol-4-yl)-N-(1-(methylsulfonyl)piperidin-4-yl)-5-(trifluoromethyl)pyrimidin-2-amine]
≤ 50 nM | CS(=O)(=O)N1CCC(Nc2ncc(C(F)(F)F)c(-c3cn(-c4cccc(CCN5CCOCC5)c4Cl)cn3)n2)CC1 [Example 369, 4-(1-(2-Chloro-3-(2-morpholinoethyl)phenyl)-1H-imidazol-4-yl)-N-(1-(methylsulfonyl)piperidin-4-yl)-5-(trifluoromethyl)pyrimidin-2-amine]
≤ 50 nM | CC(=O)N(C)Cc1ccc(-n2cnc(-c3nc(NC4CCN(S(C)(=O)=O)CC4)ncc3C(F)(F)F)c2)c(Cl)c1 [Example 174, N-(3-Chloro-4-(4-(2-((1-(methylsulfonyl)piperidin-4-yl)amino)-5-(trifluoromethyl)pyrimidin-4-yl)-1H-imidazol-1-yl)benzyl)-N-methylacetamide]
≤ 50 nM | CS(=O)(=O)N1CCC(Nc2ncc(C(F)(F)F)c(-c3cn(-c4ccc5ncccc5c4Br)cn3)n2)CC1 [Example 164, 4-(1-(5-Bromoquinolin-6-yl)-1H-imidazol-4-yl)-N-(1-(methyl-sulfonyl)piperidin-4-yl)-5-(trifluoromethyl)-pyrimidin-2-amine]
≤ 50 nM | Cc1nc(C#N)ccc1-n1cnc(-c2nc(NC3CCN(S(C)(=O)=O)CC3)ncc2C(F)(F)F)c1 [Example 33, 6-Methyl-5-(4-(2-((1-(methylsulfonyl)piperidin-4-yl)amino)-5-(trifluoromethyl)pyrimidin-4-yl)-1H-imidazol-1-yl)picolinonitrile]
≤ 50 nM | Cc1nc(CN2CCC2)ccc1-n1cnc(-c2nc(NC3CCN(S(C)(=O)=O)CC3)ncc2C(F)(F)F)c1 [Example 252, 4-(1-(6-(Azetidin-1-ylmethyl)-2-methylpyridin-3-yl)-1H-imidazol-4-yl)-N-(1-(methylsulfonyl)piperidin-4-yl)-5-(trifluoromethyl)pyrimidin-2-amine]

From US11427567B2, “Imidazolyl pyrimidinylamine compounds as CDK2 inhibitors” (Incyte Corporation, priority 2019, dated 2022)
